# The source made the active and inactive calls.
# Experiments:
# Hexokinase HKDC1 = target: T1, Hexokinase HKDC1 (Homo sapiens, UniProt Q2TB90); test: SAR analysis of small molecule inhibitors of hexokinase domain containing I (HKDC1). [Related pubchem assays (depositor defined):AID493160, AID493190]; format: functional
# T1 sequence (Q2TB90 whole entry): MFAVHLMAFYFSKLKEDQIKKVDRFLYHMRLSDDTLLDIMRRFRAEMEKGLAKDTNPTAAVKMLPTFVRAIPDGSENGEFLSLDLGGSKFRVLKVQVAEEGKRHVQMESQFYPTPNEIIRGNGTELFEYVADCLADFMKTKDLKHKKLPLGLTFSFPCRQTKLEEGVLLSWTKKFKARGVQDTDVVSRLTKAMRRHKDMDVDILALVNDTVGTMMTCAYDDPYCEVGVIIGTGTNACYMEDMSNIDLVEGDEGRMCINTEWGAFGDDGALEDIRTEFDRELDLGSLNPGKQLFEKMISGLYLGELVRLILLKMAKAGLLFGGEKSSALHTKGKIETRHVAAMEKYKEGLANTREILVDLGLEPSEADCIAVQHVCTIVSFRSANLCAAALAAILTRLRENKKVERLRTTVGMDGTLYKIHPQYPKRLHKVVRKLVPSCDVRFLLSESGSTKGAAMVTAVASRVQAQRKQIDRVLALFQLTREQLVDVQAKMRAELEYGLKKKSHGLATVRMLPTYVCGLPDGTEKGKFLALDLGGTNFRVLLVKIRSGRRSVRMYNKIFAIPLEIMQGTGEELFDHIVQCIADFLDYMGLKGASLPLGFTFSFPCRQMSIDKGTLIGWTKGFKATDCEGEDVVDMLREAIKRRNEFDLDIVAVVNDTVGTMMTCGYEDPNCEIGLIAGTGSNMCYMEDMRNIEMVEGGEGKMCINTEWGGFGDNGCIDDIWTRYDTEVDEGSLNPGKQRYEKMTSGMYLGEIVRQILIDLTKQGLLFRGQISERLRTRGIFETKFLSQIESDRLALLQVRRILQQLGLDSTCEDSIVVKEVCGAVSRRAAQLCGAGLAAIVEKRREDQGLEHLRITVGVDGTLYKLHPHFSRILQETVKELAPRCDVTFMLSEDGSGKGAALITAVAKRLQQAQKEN
# Hexokinase-1 = target: T2, Hexokinase-1 (Homo sapiens, UniProt P19367); test: SAR analysis of small molecule inhibitors of hexokinase domain containing I (HKDC1) in the hexokinase 1 selectivity assay. [Related pubchem assays (depositor defined):AID493160, AID493190]; format: functional
# T2 sequence (P19367 whole entry): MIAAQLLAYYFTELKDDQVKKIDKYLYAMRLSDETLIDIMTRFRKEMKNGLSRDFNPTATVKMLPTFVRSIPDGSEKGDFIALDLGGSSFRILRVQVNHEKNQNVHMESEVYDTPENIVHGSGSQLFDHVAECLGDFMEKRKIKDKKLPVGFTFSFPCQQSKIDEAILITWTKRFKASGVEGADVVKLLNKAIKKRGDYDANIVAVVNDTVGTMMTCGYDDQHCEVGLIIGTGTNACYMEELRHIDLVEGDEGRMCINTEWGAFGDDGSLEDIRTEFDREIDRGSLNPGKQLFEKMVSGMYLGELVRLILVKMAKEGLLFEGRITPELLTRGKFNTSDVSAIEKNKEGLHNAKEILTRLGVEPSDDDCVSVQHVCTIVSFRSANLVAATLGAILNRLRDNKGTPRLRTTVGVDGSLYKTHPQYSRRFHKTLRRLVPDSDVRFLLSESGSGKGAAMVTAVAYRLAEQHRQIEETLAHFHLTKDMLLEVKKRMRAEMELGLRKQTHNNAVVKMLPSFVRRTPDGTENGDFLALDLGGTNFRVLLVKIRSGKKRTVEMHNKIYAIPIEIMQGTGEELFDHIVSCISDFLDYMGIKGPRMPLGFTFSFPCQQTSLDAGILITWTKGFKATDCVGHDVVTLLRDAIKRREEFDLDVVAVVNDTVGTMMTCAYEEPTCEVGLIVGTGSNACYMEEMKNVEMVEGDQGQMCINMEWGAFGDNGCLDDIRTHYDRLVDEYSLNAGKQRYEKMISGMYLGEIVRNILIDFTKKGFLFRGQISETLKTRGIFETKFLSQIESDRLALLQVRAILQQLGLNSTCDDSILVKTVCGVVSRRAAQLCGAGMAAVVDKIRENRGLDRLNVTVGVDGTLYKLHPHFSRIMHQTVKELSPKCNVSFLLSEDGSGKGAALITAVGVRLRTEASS
# HEK293 [1] = test: cells; format: functional, cell-based; conditions: Homo sapiens
# [2] = alpha-synuclein stem-loop luciferase translation blockers – H4 neuroglioma cells, luminescence, confirmation (AID 1988); format: functional, cell-based
# [3] = target: Nucleotide-binding oligomerization domain-containing protein 2 (Homo sapiens, UniProt Q9HC29); test: inhibition of NOD2-driven NF-kB reporter – cell-based, luminescence, uHTS, HEK293 (AID 1566); format: functional
# Chain of Nucleotide-binding oligomerization domain-containing protein 2 (Q9HC29 whole entry, the tested form may be a part): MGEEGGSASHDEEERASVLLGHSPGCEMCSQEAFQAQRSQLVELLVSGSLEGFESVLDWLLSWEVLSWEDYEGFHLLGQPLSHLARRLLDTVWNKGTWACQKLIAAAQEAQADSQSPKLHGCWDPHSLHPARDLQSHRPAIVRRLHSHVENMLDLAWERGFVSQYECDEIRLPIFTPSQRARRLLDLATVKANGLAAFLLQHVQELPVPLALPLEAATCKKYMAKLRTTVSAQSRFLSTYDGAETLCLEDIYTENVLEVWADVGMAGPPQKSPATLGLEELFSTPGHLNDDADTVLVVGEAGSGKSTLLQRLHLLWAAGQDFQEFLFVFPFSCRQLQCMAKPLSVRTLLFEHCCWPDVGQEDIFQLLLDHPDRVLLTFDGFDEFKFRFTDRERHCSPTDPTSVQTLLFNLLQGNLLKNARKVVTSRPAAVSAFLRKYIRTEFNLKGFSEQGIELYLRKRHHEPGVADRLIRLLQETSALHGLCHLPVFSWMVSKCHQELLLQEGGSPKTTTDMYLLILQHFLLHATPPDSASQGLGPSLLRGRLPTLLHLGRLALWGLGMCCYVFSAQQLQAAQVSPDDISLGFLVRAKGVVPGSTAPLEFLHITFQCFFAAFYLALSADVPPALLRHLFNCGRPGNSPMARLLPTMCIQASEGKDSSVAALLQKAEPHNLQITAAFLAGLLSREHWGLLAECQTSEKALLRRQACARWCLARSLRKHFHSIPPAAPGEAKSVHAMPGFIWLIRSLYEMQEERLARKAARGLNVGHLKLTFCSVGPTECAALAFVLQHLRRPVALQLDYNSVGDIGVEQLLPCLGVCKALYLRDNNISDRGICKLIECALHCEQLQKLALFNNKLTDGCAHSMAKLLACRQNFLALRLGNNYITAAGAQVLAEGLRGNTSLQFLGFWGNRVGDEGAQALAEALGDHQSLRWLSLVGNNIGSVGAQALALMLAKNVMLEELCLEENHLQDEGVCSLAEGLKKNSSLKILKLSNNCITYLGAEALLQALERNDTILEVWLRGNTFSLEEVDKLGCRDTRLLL
# [4] = viability of PTEN-deleted HCT116 cells – cell-based, HCT116 PTEN knockout, dose response (AID 1047); format: functional;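 note: HCT116 colon tumor cells with PTEN knocked out; cells exposed to compound for 60 hours before readout; potency for loss of cell viability measured by luminescence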
# [5] = viability of HCT116 lacking mutant beta-catenin – cell-based, human colon tumor, dose response (AID 1045); format: functional;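 note: HCT116 colon tumor cells with beta catenin knocked out; cells exposed to compound for 60 hours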
# HEK293 [6] = test: NOD2 signaling inhibitors in MDP-stimulated cells, cell-based, uHTS, luminescence (AID 2001); format: functional; conditions: Homo sapiens
# [7] = loss of viability in HepG2 cells – cell-based, CellTiter-Glo, cherry-picked, cytotoxicity control for Shn3 inhibitor project, dose response (AID 624134); format: functional
# [8] = non-specific 3'UTR reporter inhibition in Clone20-Shn3RL – cell-based, Renilla luciferase, cherry-picked, counter-screen for Shn3 inhibitor project, dose response (AID 624133); format: functional
# [9] = luciferase reporter signal suppression in cells – H4 neuroglioma cells, luminescence, dose response (AID 1990); format: functional, cell-based
# HEK293 [10] = test: cells; format: functional, cell-based; conditions: Homo sapiens; remark: listed apart in the source
# [11] = target: Beta-2 adrenergic receptor (Homo sapiens, UniProt P07550); test: ADRB2 activation measured by internalization – cell-based, FAP fluorogen, flow cytometry, cherry pick 1, dose response (AID 588763); format: functional
# Chain of Beta-2 adrenergic receptor (P07550 whole entry): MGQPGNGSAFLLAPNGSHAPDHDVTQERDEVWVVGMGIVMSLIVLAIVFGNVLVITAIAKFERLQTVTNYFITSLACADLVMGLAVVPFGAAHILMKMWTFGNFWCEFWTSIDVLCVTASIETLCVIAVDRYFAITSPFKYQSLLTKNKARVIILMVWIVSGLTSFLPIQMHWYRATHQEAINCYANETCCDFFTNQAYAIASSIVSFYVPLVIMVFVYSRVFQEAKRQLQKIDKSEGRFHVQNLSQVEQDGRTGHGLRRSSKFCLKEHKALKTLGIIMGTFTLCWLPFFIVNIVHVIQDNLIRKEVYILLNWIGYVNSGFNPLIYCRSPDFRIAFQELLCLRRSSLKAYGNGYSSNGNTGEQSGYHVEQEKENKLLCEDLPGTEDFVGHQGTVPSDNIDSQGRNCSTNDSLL
# [12] = Luminescence Cell-Based Dose Response HTS to Identify Inhibitors of 5'UTR Stem-Loop Driven Prion Protein mRNA Translation in H4 Neuroglioblastoma Cells. [Related pubchem assays: 1827 (Project Summary), 1813 (Primary HTS)]; format: functional
# HEK293 [13] = test: inhibition of NOD1-driven NF-kB reporter – cell-based, luminescence, uHTS, primary screen (AID 1578); format: functional; conditions: Homo sapiens
# [14] = reduced cellular PGC1a acetyl-lysine signal – cell-based, cherry-picked samples, dose response (AID 720514); format: functional;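 note: potency may reflect raised or lowered acetylation signal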
# [15] = target: Sphingosine 1-phosphate receptor 1 (Homo sapiens, UniProt P21453); format: functional;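 note: Tango beta-arrestin reporter U2OS cells stimulated with S1P near its EC80; inhibitor potency meaning antagonism of receptor activation by the natural agonist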
# Chain of Sphingosine 1-phosphate receptor 1 (P21453 whole entry): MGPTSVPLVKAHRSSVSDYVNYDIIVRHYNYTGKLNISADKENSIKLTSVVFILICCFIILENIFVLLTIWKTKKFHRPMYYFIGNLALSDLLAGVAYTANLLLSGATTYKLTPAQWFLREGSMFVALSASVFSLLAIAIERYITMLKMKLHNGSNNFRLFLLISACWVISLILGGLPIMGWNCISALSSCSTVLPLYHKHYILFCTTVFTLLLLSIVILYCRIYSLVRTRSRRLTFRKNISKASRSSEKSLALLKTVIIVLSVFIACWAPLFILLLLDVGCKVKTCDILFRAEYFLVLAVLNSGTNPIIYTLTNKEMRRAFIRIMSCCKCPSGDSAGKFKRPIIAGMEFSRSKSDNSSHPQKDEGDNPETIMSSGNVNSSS
# HEK293 [16] = test: cells; format: functional, cell-based; conditions: Homo sapiens; remark: listed apart in the source
# [17] = target: Sphingosine 1-phosphate receptor 4 (Homo sapiens, UniProt O95977); test: Fluorescence dose response cell-based high throughput screening assay for antagonists of the Sphingosine 1-Phosphate Receptor 4 (S1P4). [Related pubchem assays: 1524 (Confirmation in triplicates.), 1510 (Primary screen.)]; format: functional
# Chain of Sphingosine 1-phosphate receptor 4 (O95977 whole entry): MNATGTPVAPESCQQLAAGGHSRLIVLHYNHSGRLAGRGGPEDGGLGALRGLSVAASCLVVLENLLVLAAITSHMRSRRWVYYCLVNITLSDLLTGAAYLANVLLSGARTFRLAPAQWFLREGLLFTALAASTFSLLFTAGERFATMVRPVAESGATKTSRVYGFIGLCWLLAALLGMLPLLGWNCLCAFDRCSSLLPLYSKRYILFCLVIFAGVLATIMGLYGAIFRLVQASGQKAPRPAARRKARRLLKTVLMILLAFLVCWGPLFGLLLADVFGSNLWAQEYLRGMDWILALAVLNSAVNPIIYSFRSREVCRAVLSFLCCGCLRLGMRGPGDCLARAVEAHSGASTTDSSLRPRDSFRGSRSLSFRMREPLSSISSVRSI
# [18] = reduction of Shn3 3'UTR-driven luciferase in osteoblasts – cell-based, Clone20 osteoblasts, firefly luciferase, cherry-picked, dose response (AID 624132); format: functional;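 note: firefly luciferase luminescence from reporter carrying the Shn3 3'UTR in osteoblasts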
# INS1 = test: INS-1E survival protection against cytokine death – cell-based, luminescence, retest, dose response (AID 449756); format: functional; conditions: Rattus norvegicus;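 note: cell death triggered by IL-1 beta plus TNF-alpha plus IFN-gamma mixture; protective hits raise ATP signal compared with cytokine alone wells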
# [19] = target: T3, Beta-adrenergic receptor kinase 1 (Homo sapiens, UniProt P25098); test: aptamer displacement from bead-bound GRK2 – biochemical, cherry pick 1, bead flow cytometry, dose response (AID 504500)
# T3 sequence (P25098 whole entry): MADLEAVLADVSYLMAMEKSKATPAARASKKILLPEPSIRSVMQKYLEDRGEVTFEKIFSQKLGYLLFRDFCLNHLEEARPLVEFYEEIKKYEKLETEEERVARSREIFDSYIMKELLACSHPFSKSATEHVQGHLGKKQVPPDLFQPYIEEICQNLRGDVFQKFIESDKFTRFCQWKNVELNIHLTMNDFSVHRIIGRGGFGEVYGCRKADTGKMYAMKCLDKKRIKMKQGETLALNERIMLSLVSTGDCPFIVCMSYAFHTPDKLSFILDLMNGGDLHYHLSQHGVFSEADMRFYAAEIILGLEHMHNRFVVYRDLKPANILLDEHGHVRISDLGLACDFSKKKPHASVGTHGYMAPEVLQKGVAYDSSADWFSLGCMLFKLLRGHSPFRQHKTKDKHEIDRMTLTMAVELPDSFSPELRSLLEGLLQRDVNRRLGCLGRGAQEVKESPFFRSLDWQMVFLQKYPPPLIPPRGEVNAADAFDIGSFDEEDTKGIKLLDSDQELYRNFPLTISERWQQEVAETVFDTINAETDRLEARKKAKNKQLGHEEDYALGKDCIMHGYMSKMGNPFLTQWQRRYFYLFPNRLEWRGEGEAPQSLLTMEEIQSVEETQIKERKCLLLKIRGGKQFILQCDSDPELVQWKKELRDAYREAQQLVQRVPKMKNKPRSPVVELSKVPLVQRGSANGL
# [20] = target: T3, Beta-adrenergic receptor kinase 1; test: blockers of aptamer binding to GRK2 – biochemical, flow cytometry beads, FAM-aptamer, powder set 1, dose response (AID 588720)
# Cysteine protease ATG4B = Cysteine protease ATG4B (Homo sapiens, UniProt Q9Y4P1); format: functional;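 note: Fluorescence-based dose-response confirmation assay measuring inhibition of ATG4B activity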
# Chain of Cysteine protease ATG4B (Q9Y4P1 whole entry): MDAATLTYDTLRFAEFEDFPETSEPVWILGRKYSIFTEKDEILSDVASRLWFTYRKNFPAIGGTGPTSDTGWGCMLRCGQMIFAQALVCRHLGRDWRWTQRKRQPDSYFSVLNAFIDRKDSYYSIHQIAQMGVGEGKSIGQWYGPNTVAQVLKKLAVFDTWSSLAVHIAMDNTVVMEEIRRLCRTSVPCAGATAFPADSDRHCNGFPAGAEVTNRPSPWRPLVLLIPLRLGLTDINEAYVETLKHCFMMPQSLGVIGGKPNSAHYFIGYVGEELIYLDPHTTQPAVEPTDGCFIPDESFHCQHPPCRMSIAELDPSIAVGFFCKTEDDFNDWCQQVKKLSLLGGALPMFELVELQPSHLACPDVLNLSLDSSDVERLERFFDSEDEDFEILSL
# Nonstructural protein 1 = Nonstructural protein 1 (Influenza A virus, UniProt Q194T2); format: functional, Influenza A virus (A/California/07/2009(H1N1))
# Chain of Nonstructural protein 1 (Q194T2 whole entry): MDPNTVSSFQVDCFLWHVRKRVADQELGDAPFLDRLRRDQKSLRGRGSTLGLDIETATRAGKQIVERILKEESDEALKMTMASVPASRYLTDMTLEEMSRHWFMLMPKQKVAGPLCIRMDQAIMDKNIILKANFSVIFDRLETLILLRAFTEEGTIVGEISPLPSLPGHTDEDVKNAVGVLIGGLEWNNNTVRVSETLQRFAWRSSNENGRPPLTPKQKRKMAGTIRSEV
# Phospholipase A2 = Phospholipase A2 (Homo sapiens, UniProt P04054); format: functional;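 note: confirmatory dose-response counterscreen on phospholipase A2, testing hits that came from an ultra-high-throughput screen for ATG4B inhibitors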
# Chain of Phospholipase A2 (P04054 whole entry): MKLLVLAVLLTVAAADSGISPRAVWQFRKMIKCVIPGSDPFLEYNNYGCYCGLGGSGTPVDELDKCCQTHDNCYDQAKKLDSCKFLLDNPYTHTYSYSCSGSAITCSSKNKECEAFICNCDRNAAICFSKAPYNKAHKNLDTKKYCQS
# Phospholipase D1 = target: T4, Phospholipase D1 (Homo sapiens, UniProt Q13393); test: PLD1 purified enzyme concentration response. [Related pubchem assays (depositor defined):AID588854]; format: functional
# T4 sequence (Q13393 whole entry): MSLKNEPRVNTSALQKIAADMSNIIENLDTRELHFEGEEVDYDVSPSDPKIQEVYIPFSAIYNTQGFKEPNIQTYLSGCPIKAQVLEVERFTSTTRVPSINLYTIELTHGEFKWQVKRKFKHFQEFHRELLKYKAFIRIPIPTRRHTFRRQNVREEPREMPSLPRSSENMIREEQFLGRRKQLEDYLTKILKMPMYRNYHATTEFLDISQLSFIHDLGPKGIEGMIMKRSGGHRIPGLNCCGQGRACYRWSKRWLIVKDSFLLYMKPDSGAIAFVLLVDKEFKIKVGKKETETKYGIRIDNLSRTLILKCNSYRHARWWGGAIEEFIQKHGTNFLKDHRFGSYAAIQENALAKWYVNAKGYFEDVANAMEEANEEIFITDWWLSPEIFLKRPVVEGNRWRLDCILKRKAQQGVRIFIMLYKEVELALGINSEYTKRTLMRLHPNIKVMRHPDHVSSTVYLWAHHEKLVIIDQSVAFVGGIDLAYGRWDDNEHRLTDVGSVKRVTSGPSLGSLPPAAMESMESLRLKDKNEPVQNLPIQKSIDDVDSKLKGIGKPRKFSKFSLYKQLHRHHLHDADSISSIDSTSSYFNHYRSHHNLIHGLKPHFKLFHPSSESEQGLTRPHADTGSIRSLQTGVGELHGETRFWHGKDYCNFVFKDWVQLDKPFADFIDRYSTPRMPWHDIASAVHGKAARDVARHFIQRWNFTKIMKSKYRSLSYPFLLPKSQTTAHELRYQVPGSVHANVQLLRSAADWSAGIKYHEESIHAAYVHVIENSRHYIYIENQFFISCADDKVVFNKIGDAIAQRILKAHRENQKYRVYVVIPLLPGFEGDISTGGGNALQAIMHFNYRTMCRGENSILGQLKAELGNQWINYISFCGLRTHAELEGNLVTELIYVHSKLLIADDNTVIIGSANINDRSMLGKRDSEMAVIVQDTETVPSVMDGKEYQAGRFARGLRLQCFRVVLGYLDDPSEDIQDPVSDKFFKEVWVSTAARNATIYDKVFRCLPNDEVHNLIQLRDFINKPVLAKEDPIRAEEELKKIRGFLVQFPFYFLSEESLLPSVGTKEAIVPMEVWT
# Phospholipase D2 = Phospholipase D2 (Homo sapiens, UniProt O14939); test: PLD2 purified enzyme concentration response. [Related pubchem assays (depositor defined):AID588854]; format: functional
# Chain of Phospholipase D2 (O14939 whole entry): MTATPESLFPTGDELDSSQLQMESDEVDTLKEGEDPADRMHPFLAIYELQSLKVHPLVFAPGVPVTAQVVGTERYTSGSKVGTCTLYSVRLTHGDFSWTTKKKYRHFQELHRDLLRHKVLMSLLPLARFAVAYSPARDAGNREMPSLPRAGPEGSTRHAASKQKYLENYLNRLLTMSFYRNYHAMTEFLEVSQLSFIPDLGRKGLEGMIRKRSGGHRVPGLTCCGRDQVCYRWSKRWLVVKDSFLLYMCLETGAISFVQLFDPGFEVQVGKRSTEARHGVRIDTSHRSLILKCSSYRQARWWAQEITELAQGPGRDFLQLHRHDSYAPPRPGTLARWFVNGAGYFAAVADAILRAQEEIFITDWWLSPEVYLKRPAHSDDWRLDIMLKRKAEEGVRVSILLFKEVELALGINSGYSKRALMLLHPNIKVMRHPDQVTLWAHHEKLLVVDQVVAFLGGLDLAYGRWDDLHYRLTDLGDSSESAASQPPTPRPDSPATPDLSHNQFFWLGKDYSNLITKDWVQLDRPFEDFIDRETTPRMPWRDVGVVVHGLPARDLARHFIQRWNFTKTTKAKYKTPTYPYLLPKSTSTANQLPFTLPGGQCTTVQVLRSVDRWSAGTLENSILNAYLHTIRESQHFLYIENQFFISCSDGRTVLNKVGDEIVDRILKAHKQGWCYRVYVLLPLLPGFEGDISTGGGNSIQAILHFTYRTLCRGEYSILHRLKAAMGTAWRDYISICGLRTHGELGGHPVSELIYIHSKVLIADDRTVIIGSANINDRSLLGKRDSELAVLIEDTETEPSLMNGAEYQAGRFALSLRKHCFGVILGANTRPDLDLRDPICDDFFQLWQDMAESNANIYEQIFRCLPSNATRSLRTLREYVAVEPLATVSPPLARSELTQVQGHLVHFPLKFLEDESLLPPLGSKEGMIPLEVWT
# HEK293 [21] = test: HEK293T cell viability loss, resazurin readout – resazurin fluorescence, cytotoxicity control for NF-kB activator project, SAR follow-up (AID 493251); format: functional, cell-based; conditions: Homo sapiens
# Jurkat = test: SAR Analysis of small molecule inhibitors of […] specific antigen receptor-induced NF-kB activation in a Jurkat cell line using a luminescence assay - Set 3. [Related pubchem assays (depositor defined):AID435022, AID435025, AID465]; format: functional, cell-based; conditions: Homo sapiens
# HEK293 [22] = test: SAR Analysis of small molecule inhibitors of B-cell specific antigen receptor-induced NF-kB activation in a HEK-293T cell line using a luminescence assay - Set 2. [Related pubchem assays (depositor defined):AID435022, AID435025, AID489021]; format: functional, cell-based; conditions: Homo sapiens
compound,measurement,setting,value
COc1cc2c(cc1OC)-c1cc(NCc3ccc(F)cc3)nc(=O)n1CC2,IC50,Hexokinase HKDC1,> 80 µM (inactive)
same,IC50,Hexokinase-1,> 80 µM (inactive)
Cc1ccc(-c2nc(NC(=O)c3nn(C)cc3[N+](=O)[O-])sc2C)cc1,IC50,HEK293 [1],> 20 µM (inactive)
same,EC50,[2],1.84 µM (active)
same,EC50,[3],3 µM (active)
same,EC50,[4],0.4 µM (active)
same,EC50,[5],0.321 µM (active)
same,IC50,HEK293 [6],2.14 µM (active)
same,AC50,[7],26.8 µM (active)
same,AC50,[8],6.15 µM (active)
same,EC50,[9],5.46 µM (active)
same,IC50,HEK293 [10],14.7 µM (active)
same,EC50,[11],8.09 µM (active)
same,EC50,[12],5.05 µM (active)
same,EC50,HEK293 [13],5.58 µM (active)
same,AC50,[14],3.81 µM (active)
same,IC50,[15],21 µM (not active)
same,IC50,HEK293 [16],2.48 µM (active)
same,IC50,[17],1.07 µM (active)
same,AC50,[18],1.3 µM (active)
same,AC50,INS1,5.22 µM (active)
COc1ccc(CNC(=O)CCS(=O)(=O)c2ccc(Br)cc2)cc1,EC50,[19],0.7 µM (active)
same,EC50,[20],3 µM (active)
COCCNC(=O)/C(C#N)=C/c1c(N2CCN(c3ccccc3)CC2)nc2c(C)cccn2c1=O,IC50,Cysteine protease ATG4B,14.7 µM (active)
same,IC50,Nonstructural protein 1,> 100 µM (active)
same,IC50,Phospholipase A2,9.79 µM (active)
COc1cc(C(=O)NCCN2CCC3(CC2)C(=O)NCN3c2ccccc2)ccc1N,IC50,Phospholipase D1,1.08 µM (active)
same,IC50,Phospholipase D2,0.17 µM (active)
CCOc1ccc(-c2nc(CSCC(=O)NCCC3=CCCCC3)c(C)o2)cc1,IC50,HEK293 [21],42.4 µM (inactive)
same,IC50,Jurkat,9.13 µM (active)
same,IC50,HEK293 [22],17.6 µM (active)

# Source: ChEMBL document CHEMBL1201862, “PubChem BioAssay data set” (2004)
